ChEMBL document CHEMBL5352447, “Development of [1,2]oxazoloisoindoles tubulin polymerization inhibitors: Further chemical modifications and potential therapeutic effects against lymphomas” (Eur J Med Chem, 2022)

How the values were obtained:
[1] = tested on: SW-620; assay: Antiproliferative activity against human SW620 cells assessed as cell growth inhibition incubated for 72 hrs by MTT assay; type: functional
[2] = tested on: COLO 205; assay: Antiproliferative activity against human COLO 205 cells assessed as cell growth inhibition incubated for 72 hrs by MTT assay; type: functional
[3] = tested on: OVCAR-4; assay: Antiproliferative activity against human OVCAR-4 cells assessed as cell growth inhibition incubated for 72 hrs by MTT assay; type: functional
[4] = tested on: T47D; assay: Antiproliferative activity against human T47D cells assessed as cell growth inhibition incubated for 72 hrs by MTT assay; type: functional
[5] = tested on: NCI-H522; assay: Antiproliferative activity against human NCI-H522 cells assessed as cell growth inhibition incubated for 72 hrs by MTT assay; type: functional
[6] = tested on: SK-MEL-2; assay: Antiproliferative activity against human SK-MEL-2 cells assessed as cell growth inhibition incubated for 72 hrs by MTT assay; type: functional
[7] = tested on: ACHN; assay: Antiproliferative activity against human ACHN cells assessed as cell growth inhibition incubated for 72 hrs by MTT assay; type: functional
[8] = tested on: SK-MEL-5; assay: Antiproliferative activity against human SK-MEL-5 cells assessed as cell growth inhibition incubated for 72 hrs by MTT assay; type: functional
[9] = tested on: HT-29; assay: Antiproliferative activity against human HT-29 cells assessed as cell growth inhibition incubated for 72 hrs by MTT assay; type: functional
[10] = tested on: EKVX; assay: Antiproliferative activity against human EKVX cells assessed as cell growth inhibition incubated for 72 hrs by MTT assay; type: functional
[11] = tested on: PC-3; assay: Antiproliferative activity against human PC-3 cells assessed as cell growth inhibition incubated for 72 hrs by MTT assay; type: functional
[12] = tested on: NCI-H23; assay: Antiproliferative activity against human NCI-H23 cells assessed as cell growth inhibition incubated for 72 hrs by MTT assay; type: functional
[13] = tested on: Hs-578T; assay: Antiproliferative activity against human Hs-578T cells assessed as cell growth inhibition incubated for 72 hrs by MTT assay; type: functional
[14] = tested on: SNB-75; assay: Antiproliferative activity against human SNB-75 cells assessed as cell growth inhibition incubated for 72 hrs by MTT assay; type: functional
[15] = tested on: NCI-H226; assay: Antiproliferative activity against human NCI-H226 cells assessed as cell growth inhibition incubated for 72 hrs by MTT assay; type: functional
[16] = tested on: HOP-62; assay: Antiproliferative activity against human HOP-62 cells assessed as cell growth inhibition incubated for 72 hrs by MTT assay; type: functional
[17] = tested on: HL-60(TB); assay: Antiproliferative activity against human HL-60(TB) cells assessed as cell growth inhibition incubated for 72 hrs by MTT assay; type: functional
[18] = tested on: SNB-19; assay: Antiproliferative activity against human SNB-19 cells assessed as cell growth inhibition incubated for 72 hrs by MTT assay; type: functional
[19] = tested on: MCF7; assay: Antiproliferative activity against human MCF7 cells assessed as cell growth inhibition incubated for 72 hrs by MTT assay; type: functional
[20] = tested on: BT-549; assay: Antiproliferative activity against human BT-549 cells assessed as cell growth inhibition incubated for 72 hrs by MTT assay; type: functional
[21] = tested on: NCI/ADR-RES; assay: Antiproliferative activity against human NCI-ADR-RES cells assessed as cell growth inhibition incubated for 72 hrs by MTT assay; type: functional
[22] = tested on: UACC-257; assay: Antiproliferative activity against human UACC-257 cells assessed as cell growth inhibition incubated for 72 hrs by MTT assay; type: functional
[23] = tested on: DU-145; assay: Antiproliferative activity against human DU-145 cells assessed as cell growth inhibition incubated for 72 hrs by MTT assay; type: functional
[24] = tested on: RXF 393; assay: Antiproliferative activity against human RXF 393 cells assessed as cell growth inhibition incubated for 72 hrs by MTT assay; type: functional
[25] = tested on: SK-OV-3; assay: Antiproliferative activity against human SK-OV-3 cells assessed as cell growth inhibition incubated for 72 hrs by MTT assay; type: functional
[26] = tested on: 786-0; assay: Antiproliferative activity against human 786-0 cells assessed as cell growth inhibition incubated for 72 hrs by MTT assay; type: functional
[27] = tested on: TK-10; assay: Antiproliferative activity against human TK-10 cells assessed as cell growth inhibition incubated for 72 hrs by MTT assay; type: functional
[28] = tested on: SF-295; assay: Antiproliferative activity against human SF-295 cells assessed as cell growth inhibition incubated for 72 hrs by MTT assay; type: functional
[29] = tested on: SU-DHL10; assay: Antiproliferative activity against human SU-DHL-10 cells assessed as inhibition of cell proliferation incubated for 72 hrs by MTT assay; type: functional, cell-based; settings: SU-DHL10, 72 h
[30] = tested on: MDA-MB-231; assay: Antiproliferative activity against human MDA-MB-231 cells assessed as cell growth inhibition incubated for 72 hrs by MTT assay; type: functional
[31] = Antiproliferative activity against human HBL1 cells assessed as inhibition of cell proliferation incubated for 72 hrs by MTT assay; type: functional, cell-based; settings: HBL1, 72 h
[32] = tested on: SF-539; assay: Antiproliferative activity against human SF-539 cells assessed as cell growth inhibition incubated for 72 hrs by MTT assay; type: functional
[33] = tested on: VL51; assay: Antiproliferative activity against human VL51 cells assessed as proliferating cells at 1 uM incubated for 72 hrs by MTT assay relative to control; type: functional
[34] = tested on: UACC-62; assay: Antiproliferative activity against human UACC-62 cells assessed as cell growth inhibition incubated for 72 hrs by MTT assay; type: functional
[35] = Antiproliferative activity against human MINO cells assessed as proliferating cells at 1 uM incubated for 72 hrs by MTT assay relative to control; type: functional
[36] = tested on: HCT-116; assay: Antiproliferative activity against human HCT-116 cells assessed as cell growth inhibition incubated for 72 hrs by MTT assay; type: functional
[37] = tested on: HCC 2998; assay: Antiproliferative activity against human HCC 2998 cells assessed as cell growth inhibition incubated for 72 hrs by MTT assay; type: functional
[38] = tested on: UO-31; assay: Antiproliferative activity against human UO-31 cells assessed as cell growth inhibition incubated for 72 hrs by MTT assay; type: functional
[39] = tested on: SK-MEL-28; assay: Antiproliferative activity against human SK-MEL-28 cells assessed as cell growth inhibition incubated for 72 hrs by MTT assay; type: functional
[40] = tested on: A498; assay: Antiproliferative activity against human A498 cells assessed as cell growth inhibition incubated for 72 hrs by MTT assay; type: functional
[41] = tested on: VL51; assay: Antiproliferative activity against human VL51 cells assessed as inhibition of cell proliferation incubated for 72 hrs by MTT assay; type: functional, cell-based; settings: VL51, 72 h
[42] = tested on: HCT-15; assay: Antiproliferative activity against human HCT-15 cells assessed as cell growth inhibition incubated for 72 hrs by MTT assay; type: functional
[43] = tested on: MOLT-4; assay: Antiproliferative activity against human MOLT-4 cells assessed as cell growth inhibition incubated for 72 hrs by MTT assay; type: functional
[44] = tested on: CCRF-CEM; assay: Antiproliferative activity against human CCRF-CEM cells assessed as cell growth inhibition incubated for 72 hrs by MTT assay; type: functional
[45] = tested on: OVCAR-5; assay: Antiproliferative activity against human OVCAR-5 cells assessed as cell growth inhibition incubated for 72 hrs by MTT assay; type: functional
[46] = tested on: KM12; assay: Antiproliferative activity against human KM12 cells assessed as cell growth inhibition incubated for 72 hrs by MTT assay; type: functional
[47] = tested on: LOX IMVI; assay: Antiproliferative activity against human LOX IMVI cells assessed as cell growth inhibition incubated for 72 hrs by MTT assay; type: functional

COc1ccc(Cn2cc3c(c2-c2cc(OC)c(OC)c(OC)c2)CCc2c(CN4CCCC4)noc2-3)cc1
GI50 [1]: 0.54 µM
GI50 [2]: 0.94 µM
GI50 [3]: 21.4 µM
GI50 [4]: 2.65 µM
GI50 [5]: 0.47 µM
GI50 [6]: 13.2 µM
GI50 [7]: 0.63 µM
GI50 [8]: 1.02 µM
GI50 [9]: 0.4 µM
GI50 [10]: 2.11 µM
GI50 [11]: 0.64 µM
GI50 [12]: 2.8 µM
GI50 [13]: 1.8 µM
GI50 [14]: 0.67 µM
GI50 [15]: 2.07 µM
GI50 [16]: 1 µM
GI50 [17]: 0.32 µM
GI50 [18]: 0.78 µM
GI50 [19]: 0.33 µM
GI50 [20]: 2.47 µM
GI50 [21]: 0.55 µM
GI50 [22]: 17 µM
GI50 [23]: 4 µM
GI50 [24]: 0.89 µM
GI50 [25]: 6.7 µM
GI50 [26]: 1 µM
GI50 [27]: 23.4 µM
GI50 [28]: 0.46 µM
IC50 [29]: 0.7 µM
GI50 [30]: 3.05 µM
IC50 [31]: 0.6 µM
GI50 [32]: 0.75 µM
Activity [33]: 57%
GI50 [34]: 0.55 µM
Activity [35]: 8.7%
GI50 [36]: 0.47 µM
GI50 [37]: 1.84 µM
GI50 [38]: 1.16 µM
GI50 [39]: 11.5 µM
GI50 [40]: 0.78 µM
IC50 [41]: 0.15 µM
GI50 [42]: 0.48 µM
GI50 [43]: 1.47 µM
GI50 [44]: 0.73 µM
GI50 [45]: 3.2 µM
GI50 [46]: 12.6 µM

COc1ccc(Cn2cc3c(c2-c2cc(OC)c(OC)c(OC)c2)CCc2c(CO)noc2-3)cc1
GI50 [1]: 0.37 µM
GI50 [2]: 0.3 µM
GI50 [3]: 5.44 µM
GI50 [5]: 0.15 µM
GI50 [6]: 0.46 µM
GI50 [7]: 0.62 µM
GI50 [8]: 0.21 µM
GI50 [9]: 0.32 µM
GI50 [10]: 0.51 µM
GI50 [11]: 0.27 µM
GI50 [12]: 0.52 µM
GI50 [13]: 0.41 µM
GI50 [14]: 0.18 µM
GI50 [15]: 15 µM
GI50 [17]: 0.21 µM
GI50 [18]: 0.39 µM
GI50 [47]: 0.57 µM
GI50 [19]: 0.09 µM
GI50 [20]: 0.49 µM
GI50 [21]: 0.26 µM
GI50 [22]: 14.7 µM
GI50 [23]: 0.39 µM
GI50 [24]: 0.16 µM
GI50 [25]: 0.37 µM
GI50 [26]: 0.36 µM
GI50 [27]: 17.7 µM
GI50 [28]: 0.18 µM
IC50 [29]: 1.8 µM
GI50 [30]: 0.63 µM
IC50 [31]: 1.7 µM
GI50 [32]: 0.23 µM
Activity [33]: 51.3%
GI50 [34]: 0.25 µM
Activity [35]: 82.1%
GI50 [36]: 0.27 µM
GI50 [37]: 1.34 µM
GI50 [38]: 0.58 µM
GI50 [39]: 3.6 µM
GI50 [40]: 0.28 µM
IC50 [41]: 1.6 µM
GI50 [42]: 0.26 µM
GI50 [43]: 0.44 µM
GI50 [44]: 0.32 µM
GI50 [45]: 0.71 µM
GI50 [46]: 0.27 µM

COc1ccc(Cn2cc3c(c2-c2cc(OC)c(OC)c(OC)c2)CCc2c(CN4CCOCC4)noc2-3)cc1
GI50 [1]: 0.43 µM
GI50 [2]: 0.59 µM
GI50 [3]: 6.84 µM
GI50 [4]: > 100 µM
GI50 [5]: 0.3 µM
GI50 [6]: 0.55 µM
GI50 [7]: 0.63 µM
GI50 [8]: 1.86 µM
GI50 [9]: 0.64 µM
GI50 [10]: 1.4 µM
GI50 [11]: 0.65 µM
GI50 [12]: 2.17 µM
GI50 [13]: 0.5 µM
GI50 [14]: 0.31 µM
GI50 [15]: 0.89 µM
GI50 [16]: 1 µM
GI50 [17]: 0.39 µM
GI50 [18]: 0.86 µM
GI50 [47]: 0.62 µM
GI50 [19]: 0.36 µM
GI50 [20]: 1.34 µM
GI50 [21]: 0.43 µM
GI50 [22]: 1 µM
GI50 [23]: 1.99 µM
GI50 [24]: 0.29 µM
GI50 [25]: 0.97 µM
GI50 [26]: 0.77 µM
GI50 [27]: > 100 µM
GI50 [28]: 0.47 µM
IC50 [29]: 0.5 µM
GI50 [30]: 2.25 µM
IC50 [31]: 0.5 µM
GI50 [32]: 0.44 µM
Activity [33]: 53.3%
GI50 [34]: 0.61 µM
Activity [35]: 5.3%
GI50 [36]: 0.5 µM
GI50 [37]: 2.17 µM
GI50 [38]: 0.76 µM
GI50 [39]: > 100 µM
GI50 [40]: 0.32 µM
IC50 [41]: 0.2 µM
GI50 [42]: 0.51 µM
GI50 [43]: 3.06 µM
GI50 [44]: 1.26 µM
GI50 [46]: 0.4 µM
